Results on three compounds are retold here after the NIST ThermoML archive (doi:10.1016/j.tca.2010.07.017).

± gives the expanded uncertainty stated by the source.

The nature of series [1]: refractive index (Na D-line) (dimensionless). As to conditions: 298.15 K; 101.33 kPa; Liquid; Standard Abbe refractometry.
For series [2] the following is noted: 298.15 K; 101.33 kPa; Liquid; Vibrating tube method.

In the case of `C1COCCO1` [1,4-dioxane], in series [1], the refractive index was 1.4202 ± 0.0004. Besides, the mass density in series [2] came to 1028.12 ± 0.11 kg/m3.

As to `C1CCOC1` [tetrahydrofuran], the refractive index in series [1] amounted to 1.4048 ± 0.0004. Further, the mass density in series [2] is 882.03 ± 0.1 kg/m3.

As to `CC(C)=O` [acetone], in series [1], the refractive index was determined as 1.3563 ± 0.0004. In addition, the mass density in series [2] was found to be 784.65 ± 0.12 kg/m3.

For orientation: refractive index means the speed of light in vacuum divided by its phase velocity in the sample. For orientation: mass density means the mass of a sample divided by its volume.
